Measured values from patent US20120156137A1, “COMPOSITION FOR TREATMENT OF ATOPIC DERMATITIS COMPRISING GLUCOSAMINE AND DERIVATIVES THEREOF AND A METHOD FOR TREATMENT OF ATOPIC DERMATITIS USING THEM” (priority 2006, published 2012).

Tests used:
transglutaminase = details: as described in Korean Pat. Application No. 10-2006-56942; cited from earlier work
[1] = system: TPA-induced mouse ear edema model; experiment: Anti-inflammatory activity of glucosamine topically applied to the TPA-induced mouse ear edema model; type: in vivo; details: male ICR mice; topical 0.5%, 1% or 2% glucosamine 15 min and 6 hrs after TPA; read 24 hrs after TPA
Experimental: Ear edema was induced in mice using 12-O-tetradecanoylphorbol 13-acetate (TPA), as follows. TPA was prepared at 2.5[…]/20[…] in acetone. ICR mice were prepared one week before this test and allowed free access to food and water in order to minimize the stress of transport. 20[…] of the TPA solution was applied onto right ears of male ICR mice (7 weeks old). After 24 hrs, mice were sacrificed by cervical dislocation, and the right ears were punched using a 6-mm biopsy punch. The ear punches were weighed using a microbalance, finely teased, and subjected to a myeloperoxidase (MPO) assay. Thirty male ICR mice (7 weeks old, weighing 25-32 g) were divided into six groups, each of which consisted of five mice. Experimental animals were allowed free access to food and water for one week in order to minimize the stress of transport. Glucos amine and a control drug were diluted in sterile distilled water and then diluted 1:9 in acetone. Group 1 was not treated with TPA or any drug. Group 2 was treated with TPA alone on the right ear skin thereof. Group 3 was topically treated with TPA, and then with 20[…] of 0.5% glucosamine in sterile distilled water/acetone (1:9) 15 min and 6 hrs after TPA application. According to the same procedure as in Group 3, Group 4 was topically treated with 1% glucosamine, and Group 5 with 2% glucosamine. […]

[2] = system: TPA-induced mouse ear edema model; experiment: Anti-inflammatory activity of glucosamine orally administered to the TPA-induced mouse ear edema model; type: in vivo; details: male ICR mice; oral 5, 10 or 20 mg/kg glucosamine 15 min and 6 hrs after TPA; read 24 hrs after TPA
Experimental: Ear edema was induced in mice using 12-O-tetradecanoylphorbol 13-acetate (TPA), as follows. TPA was prepared at 2.5[…]/20[…] in acetone. ICR mice were prepared one week before this test and allowed free access to food and water in order to minimize the stress of transport. 20[…] of the TPA solution was applied onto right ears of male ICR mice (7 weeks old). After 24 hrs, mice were sacrificed by cervical dislocation, and the right ears were punched using a 6-mm biopsy punch. The ear punches were weighed using a microbalance, finely teased, and subjected to a myeloperoxidase (MPO) assay. Thirty five male ICR mice (7 weeks old, weighing 25-32 g) were divided into seven groups, each of which consisted of five mice. Experimental animals were allowed free access to food and water for one week in order to minimize the stress of transport. Glucosamine and a control drug were diluted in sterile physiological saline. Group 1 was not treated with TPA or any drug. Group 2 was treated with TPA alone on the right ear skin thereof. Group 3 was topically applied with TPA, and then orally administered through a sonde with 0.5 ml of glucosamine in sterile physiological saline 15 min and 6 hrs after TPA application. […]

atopy patients = experiment: Clinical test for therapeutic effects of glucosamine on atopy; type: in vivo, human; details: twenty atopy patients
Experimental: A clinical test was performed with twenty atopy patients in order to determine whether glucosamine has therapeutic effects on atopy in practice. The clinical test was conducted by the Department of Dermatology, Dongguk University Hospital (attending physician: A Y Lee; the clinical test was approved by an IRB of Dongguk University Hospital). Twenty atopy patients were dosed with glucosamine in the form of a tablet and a cream. In brief, glucosamine was orally administered at a daily dose of 500 mg for a period of two weeks. The cream (5% glucosamine) was topically applied to a desired site of the skin twice a day for a period of four weeks.

N[C@H]1C(O)O[C@H](CO)[C@@H](O)[C@@H]1O (some centres unmarked) [glucosamine]
inhibitory activity toward transglutaminase (transglutaminase): has inhibitory activity toward transglutaminase | inhibition of acute inflammation (ear punch weight and MPO activity, FIGS. 1 and 2) [1]: inhibit acute inflammation regardless of concentrations thereof | inhibition of acute inflammation (ear punch weight and MPO activity, FIGS. 3 and 4) [2]: inhibited acute inflammation regardless of the concentration thereof | therapeutic effects on atopy, external use (FIG. 5) (atopy patients; cream (5% glucosamine) topically twice a day for four weeks): significant therapeutic effects on atopy | therapeutic effects on atopy, oral administration (FIG. 5) (atopy patients; tablet, oral daily dose 500 mg for two weeks): significant therapeutic effects on atopy
